Values quoted from earlier work, collected in US20060003361A1, “SMVT transporters expressed in cancer cells” (Xenoport, Inc., priority 2004, published 2006).

Molecular target: T1, SMVT (Homo sapiens, UniProt Q9Y289)
T1 sequence (Q9Y289 1-635): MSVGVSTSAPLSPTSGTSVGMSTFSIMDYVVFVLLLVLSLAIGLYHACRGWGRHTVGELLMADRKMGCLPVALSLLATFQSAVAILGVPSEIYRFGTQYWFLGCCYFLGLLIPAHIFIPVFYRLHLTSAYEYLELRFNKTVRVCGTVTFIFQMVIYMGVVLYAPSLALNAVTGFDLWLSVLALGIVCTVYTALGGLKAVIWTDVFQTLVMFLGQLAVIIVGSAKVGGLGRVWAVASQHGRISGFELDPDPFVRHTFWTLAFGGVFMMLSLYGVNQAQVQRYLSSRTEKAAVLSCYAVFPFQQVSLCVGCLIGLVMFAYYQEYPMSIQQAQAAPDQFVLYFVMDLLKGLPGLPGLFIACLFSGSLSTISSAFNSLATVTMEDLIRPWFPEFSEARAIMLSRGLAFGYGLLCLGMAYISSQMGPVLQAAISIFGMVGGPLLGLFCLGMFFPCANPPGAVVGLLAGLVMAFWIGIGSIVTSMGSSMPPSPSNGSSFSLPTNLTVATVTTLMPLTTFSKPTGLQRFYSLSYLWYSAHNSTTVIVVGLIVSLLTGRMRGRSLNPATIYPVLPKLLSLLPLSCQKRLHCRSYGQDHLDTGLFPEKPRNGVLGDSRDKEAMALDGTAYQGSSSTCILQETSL

CC(C)(CO)[C@@H](O)C(=O)NCCC(=O)O [Pantothenic acid]
Reported Affinity for SMVT: 0.03 mM

O=C(O)CCCC[C@@H]1SC[C@@H]2NC(=O)N[C@@H]21 [Biotin]
Reported Affinity for SMVT: 0.01 mM

O=C(O)CCCc1ccccc1 [4-phenyl-butyric acid]
Reported Affinity for SMVT: 0.04 mM
